Data on 12 molecules can be found in PubChem BioAssay (NCI).

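Five concentrations, 48 hours, 96-well plates. TGI denotes the concentration required for complete inhibition of growth.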 Bounds are passed on as bounds.

Holding throughout (test): NCI-60 cell line screen, 48 h
The subject of test [1] is 786-0 renal.
In test [2] the test system is ACHN renal.
Test [3] deals with BT-549 breast.
Test [4] relates to HOP-92 NSCLC.
For test [5], the system named is HS 578T breast.
Test [6] relates to HT29 colon.
For test [7], the system named is K-562 leukemia.
Test [8] concerns KM12 colon.
Test [9] concerns OVCAR-5 ovarian.
Test [10] concerns PC-3 prostate.
The test system of test [11] is SF-268 CNS.
Test [12] has as its system SF-295 CNS.
The subject of test [13] is SF-539 CNS.
In test [14] the test system is SK-MEL-28 melanoma.
The test system of test [15] is SK-OV-3 ovarian.
Test [16] concerns SN12C renal.
The subject of test [17] is TK-10 renal.
Test [18] has as its system UACC-257 melanoma.
In test [19] the test system is UACC-62 melanoma.
Test [20] concerns SK-MEL-2 melanoma.

For `COc1ccc(Nc2nc3ccccc3nc2C(=O)O)cc1OC`, the TGI in test [1], in [2], in test [3], in test [4], in test [5] and in [6] was greater than 100 µM each time. The TGI in [7], in test [8], in test [9], in test [10], in [11] and in test [12] was greater than 100 µM in each case. The TGI in test [13], in test [14], in [15], in test [16], in [17] and in test [18] was greater than 100 µM in each case. In test [19], this molecule came in with a TGI greater than 100 µM.
In the case of `Cc1cc(C)n(C(=O)CSc2nnc(SCC(=O)n3nc(C)cc3C)s2)n1`, the TGI in test [1] is greater than 100 µM; in test [2], greater than 100 µM; in test [3] it was greater than 100 µM; in [4], greater than 100 µM; in test [5], 89.3 µM; in test [7], greater than 100 µM. Also, the TGI in test [8], in test [9], in test [10], in test [11], in test [12] and in test [13] was greater than 100 µM throughout. For the same molecule, the TGI in test [14], in test [15], in test [16], in test [17], in test [18] and in test [19] was greater than 100 µM each time.
Regarding `CC(=O)OCC(OC(C)=O)C(OC(C)=O)C(OC(C)=O)C(/C=N\Nc1nc2ccccc2c(=O)[nH]1)=N/Nc1nc2ccccc2c(=O)[nH]1` (centres undefined), the TGI in [1], in [2], in test [3], in test [4], in [5] and in [6] was greater than 100 µM in each case. The TGI in test [7], in test [8], in test [9], in [10], in test [11] and in [12] was greater than 100 µM throughout. Further, the TGI in test [13], in [20], in test [14], in test [15], in test [16] and in test [18] was greater than 100 µM each time. In addition, the TGI in test [19] is greater than 100 µM.
With `C[N+](C)([O-])Cc1cc(-c2ccccc2)ccc1O`, the TGI in [1], in test [2], in test [3], in test [4], in [5] and in test [6] was greater than 100 µM in each case. Also, the TGI in test [7], in [8], in test [9], in test [10], in [11] and in test [12] was greater than 100 µM in each case. Also, the TGI in [20], in test [14], in [16], in test [17], in test [18] and in test [19] was greater than 100 µM in each case.
Turning to `O=C(Nc1nc(C23CC4CC(CC(C4)C2)C3)cs1)c1cc2c(ccc3ccccc32)oc1=O`, the TGI in test [1], in test [2], in [3], in test [4], in test [5] and in test [6] was greater than 100 µM each time. The TGI in [7], in [8], in test [9], in test [10], in [11] and in [12] was greater than 100 µM each time. The TGI in test [13], in test [14], in test [16], in [17] and in test [18] was greater than 100 µM in each case.
With `CN(C)C(=O)C1CCN(Cc2c[nH]c3ccccc23)CC1`, the TGI in test [1], in test [2], in test [3], in [4], in [5] and in [6] was greater than 100 µM throughout. Moreover, the TGI in test [7], in [8], in test [9], in test [10], in [11] and in test [12] was greater than 100 µM each time. The TGI in test [20], in [14], in test [15], in test [16], in test [17] and in test [18] was greater than 100 µM each time. The same molecule had a TGI in [19] greater than 100 µM.
Consider `CCOC(=O)N1[C@@H]2CCC[C@@H]2C(=O)[C@@H]2CCC[C@@H]21`, for which the TGI in test [1], in test [2], in test [3], in test [4], in test [5] and in test [6] was greater than 100 µM throughout. Moreover, the TGI in test [7], in test [8], in test [9], in test [10], in [11] and in [20] was greater than 100 µM throughout. The TGI in test [14], in test [15], in test [16], in test [18] and in [19] was greater than 100 µM throughout.
For the molecule `Oc1ccc(-c2cn3cc(C(F)(F)F)ccc3n2)cc1`, the TGI in [1], in test [2], in test [3], in test [4], in [5] and in test [6] was greater than 100 µM throughout. Besides, the TGI in test [7], in [8], in test [9], in test [10], in test [11] and in [12] was greater than 100 µM in each case. Besides, the TGI in [20], in test [14], in test [15], in test [16], in test [17] and in [18] was greater than 100 µM in each case. The TGI in [19] was greater than 100 µM.
`CN(C)c1ccc(C(=NN)c2ccc(N(C)C)cc2)cc1`: the TGI in test [1] was 36.5 µM; in [2] it was greater than 78.7 µM; in [3] it was greater than 100 µM; in [4], greater than 54.4 µM; in test [5] it was greater than 100 µM; in test [6] it was greater than 21.8 µM. The TGI is greater than 56.9 µM in test [7]; greater than 100 µM in [8]; greater than 100 µM in test [9]; greater than 23.5 µM in [10]; greater than 100 µM in [11]; greater than 21.8 µM in [12]. Moreover, the TGI in test [20] is 0.445 µM; in [14], greater than 100 µM; in [15], greater than 85.5 µM; in test [16], greater than 100 µM; in [17], 3.66 µM; in [18] it was 0.813 µM. In addition, the TGI in test [19] was greater than 100 µM.
Regarding `Cn1c(-c2ccc(N=NNc3ccc(-c4n[nH]c(=S)n4C)cc3)cc2)n[nH]c1=S`, the TGI in test [1] was greater than 100 µM; in test [2], 3.93 µM; in test [3], 12.6 µM; in test [4] it was 8.84 µM; in test [5], greater than 100 µM; in test [6] it was greater than 100 µM. Moreover, the TGI in test [7], in test [9], in [10], in test [11], in [12] and in test [20] was greater than 100 µM throughout. Also, the TGI in test [14] is greater than 100 µM; in test [15], 54.9 µM; in test [16], greater than 100 µM; in [17] it was greater than 100 µM; in test [18], greater than 100 µM.
Take `CC(C)(C)NC(=O)C12C3C4C1C1C2C3C41C(=O)NC(C)(C)C` (centres undefined): the TGI in test [1] is greater than 100 µM; in test [2], greater than 100 µM; in test [3], greater than 100 µM; in test [4], 71.6 µM; in test [5], greater than 100 µM; in test [6] it was greater than 100 µM. Moreover, the TGI in [7], in [8], in [9], in test [10], in test [11] and in test [12] was greater than 100 µM throughout. The TGI in test [13], in test [20], in [14], in [16], in [17] and in test [18] was greater than 100 µM each time. This molecule had a TGI in [19] greater than 100 µM.
As for `BrCC(Br)(c1ccccc1)c1ccccc1-c1cc(-c2ccccc2)cc(-c2ccccc2)n1` (centres undefined), the TGI was 13.8 µM in [1]; 23.9 µM in [2]; 10.1 µM in test [3]; 11.4 µM in test [4]; 26 µM in test [5]; 6.65 µM in test [6]. Moreover, the TGI stood at 8.69 µM in test [7]; 12.6 µM in test [8]; 8.35 µM in [9]; 10.6 µM in test [10]; 8.5 µM in [11]; 8.92 µM in test [12]. Moreover, the TGI in test [13] was found to be 19 µM; in [20] it was 5.47 µM; in test [14], 25.3 µM; in test [16], 28 µM; in test [17], 21.5 µM; in test [18] it was 8.92 µM.
